Experimental data as given in ChEMBL document CHEMBL1201862, “PubChem BioAssay data set” (2004).
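Test compounds were applied to cells in 96-well plates for 48 hours at 5 doses. GI50 = concentration required for 50% inhibition of growth.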 The source made the active and inactive calls. Cut-off read from the data, not from the text of the source: active = GI50 up to about 1.1 µM and inactive = higher.

How the values were obtained:
Assay in all cases: NCI anticancer screen, dose series, 48 h
786-0 = tested on: 786-0
A498 = tested on: A498
A549 = tested on: A549
ACHN = tested on: ACHN
CAKI-1 = tested on: CAKI-1
CCRF-CEM = tested on: CCRF-CEM
COLO 205 = tested on: COLO 205
DU-145 = tested on: DU-145
EKVX = tested on: EKVX
HCC 2998 = tested on: HCC 2998
HCT-116 = tested on: HCT-116
HCT-15 = tested on: HCT-15
HL-60 = tested on: HL-60
HOP-62 = tested on: HOP-62
HOP-92 = tested on: HOP-92
HT-29 = tested on: HT-29
Hs-578T = tested on: Hs-578T
IGROV-1 = tested on: IGROV-1
K562 = tested on: K562
KM12 = tested on: KM12
LOX IMVI = tested on: LOX IMVI
M14 = tested on: M14
MCF7 = tested on: MCF7
MDA-MB-231 = tested on: MDA-MB-231
MDA-MB-435 = tested on: MDA-MB-435
MDA-N = tested on: MDA-N
MOLT-4 = tested on: MOLT-4
Malme-3M = tested on: Malme-3M
NCI-H226 = tested on: NCI-H226
NCI-H23 = tested on: NCI-H23
NCI-H460 = tested on: NCI-H460
NCI-H522 = tested on: NCI-H522
NCI/ADR-RES = tested on: NCI/ADR-RES
OVCAR-3 = tested on: OVCAR-3
OVCAR-4 = tested on: OVCAR-4
OVCAR-5 = tested on: OVCAR-5
OVCAR-8 = tested on: OVCAR-8
RPMI-8226 = tested on: RPMI-8226
RXF 393 = tested on: RXF 393
SF-268 = tested on: SF-268
SF-295 = tested on: SF-295
SF-539 = tested on: SF-539
SK-MEL-28 = tested on: SK-MEL-28
SK-MEL-5 = tested on: SK-MEL-5
SK-OV-3 = tested on: SK-OV-3
SN12C = tested on: SN12C
SNB-19 = tested on: SNB-19
SNB-75 = tested on: SNB-75
SR = tested on: SR
SW-620 = tested on: SW-620
T47D = tested on: T47D
TK-10 = tested on: TK-10
U-251 = tested on: U-251
UACC-257 = tested on: UACC-257
UACC-62 = tested on: UACC-62

Measured: GI50

CCN(CC)/[N+]([O-])=N/OS(=O)(=O)N(C)C
inactive: 786-0 > 100 µM | A498 > 100 µM | A549 > 100 µM | ACHN > 100 µM | CAKI-1 > 100 µM | CCRF-CEM > 100 µM | COLO 205 > 100 µM | DU-145 > 100 µM | EKVX > 100 µM | HCC 2998 > 100 µM | HCT-116 > 100 µM | HL-60 > 100 µM | HOP-62 > 100 µM | HOP-92 > 100 µM | HT-29 > 100 µM | Hs-578T > 100 µM | IGROV-1 > 100 µM | K562 > 100 µM | KM12 > 100 µM | LOX IMVI > 100 µM | M14 > 100 µM | MCF7 > 100 µM | MDA-MB-231 > 100 µM | MDA-MB-435 > 100 µM | MDA-N > 100 µM | MOLT-4 > 100 µM | Malme-3M > 100 µM | NCI-H226 > 100 µM | NCI-H23 > 100 µM | NCI-H460 > 100 µM | NCI-H522 > 100 µM | NCI/ADR-RES > 100 µM | OVCAR-3 > 100 µM | OVCAR-4 > 100 µM | OVCAR-5 > 100 µM | OVCAR-8 > 100 µM | RPMI-8226 > 100 µM | RXF 393 > 100 µM | SF-268 > 100 µM | SF-295 > 100 µM | SF-539 > 100 µM | SK-MEL-28 > 100 µM | SK-MEL-5 > 100 µM | SK-OV-3 > 100 µM | SN12C > 100 µM | SNB-19 > 100 µM | SNB-75 > 100 µM | SR > 100 µM | SW-620 > 100 µM | T47D > 100 µM | TK-10 > 100 µM | U-251 > 100 µM | UACC-257 > 100 µM | UACC-62 > 100 µM
> 100 µM: HCT-15
